Laboratory results published in US8563253B2, “Means and method for diagnosing hemolytic anemia” (priority 2006, dated 2013).

Test system: rats
Assay: Plasma metabolite profiling (GC-MS/LC-MS) of rats treated with aniline; biomarkers for aniline-inducible hemolytic anemia
Format: in vivo, rat
Protocol: A group of each 5 male and female rats was dosed once daily with aniline at 10 and 100 mg/kg body weight per gavage over 28 days. Additional groups of each 5 male and female animals served as controls. Before starting the treatment period, animals, which were 62-64 days old when supplied, were acclimatized to the housing and environmental conditions for 7 days. All animals of the animal population were kept under the same constant temperature (20-24±3° C.) and the same constant humidity (30-70%). Each animal of the animal population was kept in a separate cage. The animals of the animal population are fed ad libitum. The food to be used was be essentially free of chemical or microbial contaminants. Drinking water was also offered ad libitum. Accordingly, the water was be free of chemical and microbial contaminants as laid down in the European Drinking Water Directive 98/83/EG. The illumination period was 12 hours light followed by 12 hours darkness (12 hours light, from 6:00 to 18:00, and 12 hours darkness, from 18:00 to 6:00).
In the morning of day 7, 14, and 28, blood was taken from the retroorbital venous plexus from fasted anaesthetized animals. From each animal, 1 ml of blood was collected with EDTA as anticoagulant. The samples were be centrifuged for generation of plasma. All plasma samples were covered with a N2 atmosphere and then stored at −80° C. until analysis.
For mass spectrometry-based metabolite profiling analyses plasma samples were extracted and a polar and a non-polar fraction was obtained. For GC-MS analysis, the non-polar fraction was hydrolyzed under acidic conditions to yield the fatty acid methyl esters. Both fractions were further derivatised with a silylating agent before analysis. In LC-MS analysis, both fractions were reconstituted in appropriate solvent mixtures. HPLC was performed by gradient elution on reversed phase separation columns. For mass spectrometric detection metanomics proprietary technology was applied which allows target and high sensitivity MRM (Multiple Reaction Monitoring) profiling in parallel to a full screen analysis. […] Moreover, several hundred further analytes giving a fingerprint of the sample are included in the methods.
Following comprehensive analytical validation steps, the data for each analyte were normalized against data from pool samples. These samples were run in parallel through the whole process to account for process variability. The significance of treatment group values specific for sex, dose group and metabolite was determined by comparing means of the treated groups to the means of the respective untreated control groups using Student's t-test. Normalized treatment group values and their significance were fed into a database for further statistics and data mining processes.
The changes of the group of plasma metabolites being indicative for hemolytic anemia after treatment of rats with aniline are shown in the following table: […]

[1] = female rats, day 7, 100 mg/kg body weight/day by gavage
[2] = female rats, day 14, 100 mg/kg body weight/day by gavage
[3] = female rats, day 28, 100 mg/kg body weight/day by gavage
[4] = male and female rats, 100 mg/kg body weight/day by gavage for 28 days
[5] = male rats, day 7, 100 mg/kg body weight/day by gavage
[6] = male rats, day 14, 100 mg/kg body weight/day by gavage
[7] = male rats, day 28, 100 mg/kg body weight/day by gavage

Structure (SMILES): Nc1ccccc1 [aniline]
- 11-desoxycortisol, fold change against controls [1]: 0.39 fold
- 18-hydroxycorticosterone, fold change against controls [1]: 0.43 fold
- cytosine, fold change against controls [1]: 1.81 fold
- ribal (1,4-anhydro-2-deoxy-D-erythro-pent-1-enitol) (=MetID 407), fold change against controls [1]: 1.79 fold
- 11-desoxycortisol, fold change against controls [2]: 0.71 fold
- 18-hydroxycorticosterone, fold change against controls [2]: 0.71 fold
- cytosine, fold change against controls [2]: 1.18 fold
- ribal (1,4-anhydro-2-deoxy-D-erythro-pent-1-enitol) (=MetID 407), fold change against controls [2]: 1.66 fold
- 11-desoxycortisol, fold change against controls [3]: 0.41 fold
- 18-hydroxycorticosterone, fold change against controls [3]: 0.47 fold
- cytosine, fold change against controls [3]: 1.38 fold
- ribal (1,4-anhydro-2-deoxy-D-erythro-pent-1-enitol) (=MetID 407), fold change against controls [3]: 1.59 fold
- Regulation of 11-desoxycortisol [4]: down
- Regulation of 18-hydroxycorticosterone [4]: down
- Regulation of cytosine [4]: up
- Regulation of ribal (1,4-anhydro-2-deoxy-D-erythro-pent-1-enitol) (=MetID 407) [4]: up
- 11-desoxycortisol, fold change against controls [5]: 0.47 fold
- 18-hydroxycorticosterone, fold change against controls [5]: 0.34 fold
- cytosine, fold change against controls [5]: 1.50 fold
- ribal (1,4-anhydro-2-deoxy-D-erythro-pent-1-enitol) (=MetID 407), fold change against controls [5]: 1.68 fold
- 11-desoxycortisol, fold change against controls [6]: 0.48 fold
- 18-hydroxycorticosterone, fold change against controls [6]: 0.33 fold
- cytosine, fold change against controls [6]: 1.17 fold
- ribal (1,4-anhydro-2-deoxy-D-erythro-pent-1-enitol) (=MetID 407), fold change against controls [6]: 1.42 fold
- 11-desoxycortisol, fold change against controls [7]: 0.27 fold
- 18-hydroxycorticosterone, fold change against controls [7]: 0.18 fold
- cytosine, fold change against controls [7]: 1.71 fold
- ribal (1,4-anhydro-2-deoxy-D-erythro-pent-1-enitol) (=MetID 407), fold change against controls [7]: 1.82 fold
